Data reported in article PMC7269146, “Jingzhaotoxin-X, a gating modifier of Kv4.2 and Kv4.3 potassium channels purified from the venom of the Chinese tarantula Chilobrachys jingzhao” (The Journal of Venomous Animals and Toxins Including …, 2020).
“Also recorded” adds a separate entry of the source. Where a SMILES comes first, the peptide text is derived from it. Bridges are numbered along the chain shown (N, C = ends).

Assays:
[1] = mechanical hyperalgesia / nociceptive behavior in mice (von Frey, up-down); type: in vivo, mouse (male C57BL/6); conditions: 40 nmol/kg
Experimental: In the present study, male C57BL/6 mice weighing 20-25 g were utilized. This study was performed following the Guide for the Care and Use of Laboratory Animals released by the United States National Institutes of Health (US NIH). Our study protocol was approved by the Animal Experiments Ethics Committee at Central Southern University (No. 2018-2-6). Each operation was performed under isoflurane-induced anesthesia to reduce pain and minimize animal suffering. Lumbar puncture was also conducted for intrathecal injection, as described previously. Next, the effect of JZTX-X on nociception was evaluated by assessing the behaviors during the mechanical hyperalgesia process. The JZTX-X-induced mechanical hyperalgesia was investigated by two experiments via various administration routes, including intrathecal and intraplantar injections. Then, animals were challenged via intrathecal (10 µL) or intraplantar (20 µL) injection of JZTX-X (40 nmol/kg). The control group was given a physiological solution, which contained 0.9% NaCl, […].
Mechanical hyperalgesia was measured according to the previously depicted “up-down” paradigm. Individual mice were allowed to acclimate for at least 30 min on the mesh floor in suspended chambers. After acclimatization, various calibrated von Frey filaments (Stoelting, Wood Dale, IL) were applied to all animals, which were vertical to the hind paw plantar surfaces becausethere was enough force for bending those filaments for 6 s. Later, the animal responses were recorded. The positive response was defined as paw flinching or brisk withdrawal. When there was no response, force filament at a greater level was applied. Accordingly, force ligament at a lower level was applied […]. The “up-down” approach was adopted to calculate the 50% likelihood where one withdrawal response was produced by the simple stimulus.

Kv4.2 = target: T1, Kv4.2 (Rattus norvegicus, UniProt Q63881); assay: paired-pulse protocol, recovery from inactivation of Kv4.2; type: cell-based; conditions: n = 7
T1 construct: expressed in transfected cells; host or cells: HEK293t
T1 sequence (Q63881 1-630): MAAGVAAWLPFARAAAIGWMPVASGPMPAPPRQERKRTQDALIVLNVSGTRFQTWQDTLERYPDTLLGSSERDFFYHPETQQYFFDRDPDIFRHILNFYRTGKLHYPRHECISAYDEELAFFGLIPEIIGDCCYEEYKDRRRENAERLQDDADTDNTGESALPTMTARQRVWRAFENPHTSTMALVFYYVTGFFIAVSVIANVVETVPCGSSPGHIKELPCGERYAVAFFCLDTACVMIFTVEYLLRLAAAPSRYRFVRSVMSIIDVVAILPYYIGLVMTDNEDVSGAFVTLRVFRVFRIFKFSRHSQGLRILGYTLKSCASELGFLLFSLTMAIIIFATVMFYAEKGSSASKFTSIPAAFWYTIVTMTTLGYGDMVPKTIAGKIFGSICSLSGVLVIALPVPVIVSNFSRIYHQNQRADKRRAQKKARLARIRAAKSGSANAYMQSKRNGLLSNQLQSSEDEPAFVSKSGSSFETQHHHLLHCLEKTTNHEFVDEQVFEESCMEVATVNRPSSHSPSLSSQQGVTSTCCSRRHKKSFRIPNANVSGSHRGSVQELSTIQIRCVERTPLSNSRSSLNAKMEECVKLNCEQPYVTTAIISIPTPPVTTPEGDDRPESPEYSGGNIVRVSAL
From the text: Rat cDNA genes encoding Kv4.2 (Accession: NM_031730.2) and Kv4.3 (Accession: AB003587.1) were subcloned to vector pcDNA3.1. In addition, human cDNA genes encoding Nav1.7 (Accession: DQ857292.1) and Nav1.5 (Accession: AB158469.2) were subcloned to vectors pcDNA3.1-mod and pcDNA3.1, separately. Then, Kv4.2, Kv4.3, Nav1.5 and Nav1.7 constructs were transiently transfected into the human embryonic kidney 293t (HEK293t) cells using lipofectamine 2000 (Invitrogen, USA) in accordance with manufacturer protocols. Thereafter, HEK293 cells were inoculated within Dulbecco’s modified Eagle’s medium (DMEM) containing 10% fetal bovine serum (FBS) at 5% CO2 and 37°C. The Kv4.3 channel and the Kv4.2 counterpart were then transfected in the absence of β subunit. Subsequently, cells were incubated with a DNA-lipofectamine mixture (one reporter plasmid for green fluorescence protein and channel constructs) for 4-6 h, and were washed with the fresh medium. […]
Figure 7. […] Thereafter, those elicited peak currents in test pulses were determined and standardized based on the peak currents for conditioning pulses within the identical cell. […] ( B ) The standardized recovery data were expressed as mean ± S.E. (n = 7), plotted as a function of inter-pulse interval, and fitted to one singular exponential function.

Nav1.7 = assay: voltage-clamp, Nav1.7 currents; type: cell-based, human; conditions: 1 μM; n = 3
From the text: Rat cDNA genes encoding Kv4.2 (Accession: NM_031730.2) and Kv4.3 (Accession: AB003587.1) were subcloned to vector pcDNA3.1. In addition, human cDNA genes encoding Nav1.7 (Accession: DQ857292.1) and Nav1.5 (Accession: AB158469.2) were subcloned to vectors pcDNA3.1-mod and pcDNA3.1, separately. Then, Kv4.2, Kv4.3, Nav1.5 and Nav1.7 constructs were transiently transfected into the human embryonic kidney 293t (HEK293t) cells using lipofectamine 2000 (Invitrogen, USA) in accordance with manufacturer protocols. Thereafter, HEK293 cells were inoculated within Dulbecco’s modified Eagle’s medium (DMEM) containing 10% fetal bovine serum (FBS) at 5% CO2 and 37°C. The Kv4.3 channel and the Kv4.2 counterpart were then transfected in the absence of β subunit. Subsequently, cells were incubated with a DNA-lipofectamine mixture (one reporter plasmid for green fluorescence protein and channel constructs) for 4-6 h, and were washed with the fresh medium.
An EPC-10 patch-clamp amplifier (HEKA, Germany) was employed to record the potassium currents at the configuration of whole-cell patch-clamp under an ambient temperature of 22-25°C. The resistance was 2.0-3.0 MΩ when the recording pipette contained a full volume of internal solution (supplemented with 140 mM KCl, 10 mM HEPES, 2.5 mM MgCl2, 5 mM ATP and 11 mM EGTA). […]

## CC(C)C[C@@H]1NC(=O)[C@H](CCCCN)NC(=O)[C@H](Cc2ccc(O)cc2)NC(=O)[C@@H]2CSSC[C@@H]3NC(=O)[C@H](Cc4ccc(O)cc4)NC(=O)[C@H](Cc4ccccc4)NC(=O)CNC(=O)[C@H](C)NC(=O)[C@H](CSSC[C@H](NC(=O)[C@@H](N)CC(C)C)C(=O)N[C@@H](CO)C(=O)N[C@@H](CCCNC(=N)N)C(=O)N[C@@H](CCC(=O)O)C(=O)NCC(=O)N[C@@H](CCC(=O)O)C(=O)N[C@@H](Cc4ccccc4)C(=O)N2)NC(=O)[C@H](CSSC[C@@H](C(=O)N[C@@H](Cc2ccc(O)cc2)C(=O)N[C@@H](CCCNC(=N)N)C(=O)N[C@@H](CC(N)=O)C(=O)O)NC(=O)[C@H](Cc2c[nH]cn2)NC(=O)[C@H](CC(C)C)NC(=O)[C@H](C(C)C)NC(=O)[C@H](Cc2ccccc2)NC(=O)[C@H](C)NC(=O)[C@H](CCCCN)NC3=O)NC(=O)[C@H](CCCCN)NC(=O)[C@H](CCCNC(=N)N)NC1=O [JZTX-X, Jingzhaotoxin-X] (H-LCSREGEFCYKLRKCCAGFYCKAFVLHCYRN-OH; disulfide 2-16, 9-21, 15-28; N-terminus assumed)
[1]; intraplantar, n = 8
  baseline threshold of tactile withdrawal: markedly decreased
[1]; intrathecal or intraplantar, after cessation of treatment
  duration of reduced paw withdrawal threshold: at least 120 min
[1]; intrathecal or intraplantar, n = 8
  spontaneous nociceptive behaviors: did not induce spontaneous nociceptive behaviors
[1]; intrathecal, n = 8
  baseline threshold of tactile withdrawal: markedly decreased
Kv4.2; paired-pulse protocol
  effect on recovery of Kv4.2: remarkably accelerated the recovery of Kv4.2 channel inhibition
Kv4.2; toxin concentration not given, control 195.3 ± 31.6 ms, P<0.05, single exponential
  time constant of recovery from inactivation, Kv4.2: 130.2 ± 25.3 ms
Nav1.7
  effect on Nav1.7 channel: negligible effect; also recorded: did not affect the currents
